Measurements published in PubChem BioAssay (NCI).
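All cell lines were grown in 96-well plates and treated with compound for 48 hours. GI50: concentration for 50% inhibition of growth. TGI: concentration producing complete growth inhibition.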

Assays:
Test in all cases: NCI tumour cell line growth inhibition, 48 h
MDA-MB-468 breast = system: MDA-MB-468 breast
786-0 renal = system: 786-0 renal
A498 renal = system: A498 renal
A549 NSCLC = system: A549 NSCLC
ACHN renal = system: ACHN renal
BT-549 breast = system: BT-549 breast
CAKI-1 renal = system: CAKI-1 renal
CCRF-CEM leukemia = system: CCRF-CEM leukemia
COLO 205 colon = system: COLO 205 colon
DU-145 prostate = system: DU-145 prostate
EKVX NSCLC = system: EKVX NSCLC
HCC-2998 colon = system: HCC-2998 colon
HCT-116 colon = system: HCT-116 colon
HCT-15 colon = system: HCT-15 colon
HL-60(TB) leukemia = system: HL-60(TB) leukemia
HOP-62 NSCLC = system: HOP-62 NSCLC
HOP-92 NSCLC = system: HOP-92 NSCLC
HS 578T breast = system: HS 578T breast
HT29 colon = system: HT29 colon
IGROV1 ovarian = system: IGROV1 ovarian
K-562 leukemia = system: K-562 leukemia
KM12 colon = system: KM12 colon
LOX IMVI melanoma = system: LOX IMVI melanoma
M14 melanoma = system: M14 melanoma
MALME-3M melanoma = system: MALME-3M melanoma
MCF7 breast = system: MCF7 breast
MDA-MB-435 = system: MDA-MB-435
MOLT-4 leukemia = system: MOLT-4 leukemia
NCI-H226 lung = system: NCI-H226 lung
NCI-H23 lung = system: NCI-H23 lung
NCI-H460 lung = system: NCI-H460 lung
NCI-H522 lung = system: NCI-H522 lung
NCI/ADR-RES ovarian = system: NCI/ADR-RES ovarian
OVCAR-3 ovarian = system: OVCAR-3 ovarian
OVCAR-4 ovarian = system: OVCAR-4 ovarian
OVCAR-5 ovarian = system: OVCAR-5 ovarian
OVCAR-8 ovarian = system: OVCAR-8 ovarian
PC-3 prostate = system: PC-3 prostate
RPMI-8226 leukemia = system: RPMI-8226 leukemia
RXF 393 renal = system: RXF 393 renal
SF-268 CNS = system: SF-268 CNS
SF-295 CNS = system: SF-295 CNS
SF-539 CNS = system: SF-539 CNS
SK-MEL-28 melanoma = system: SK-MEL-28 melanoma
SK-MEL-5 melanoma = system: SK-MEL-5 melanoma
SK-OV-3 ovarian = system: SK-OV-3 ovarian
SN12C renal = system: SN12C renal
SNB-19 CNS = system: SNB-19 CNS
SR leukemia = system: SR leukemia
SW-620 colon = system: SW-620 colon
T-47D breast = system: T-47D breast
TK-10 renal = system: TK-10 renal
U251 CNS = system: U251 CNS
UACC-257 melanoma = system: UACC-257 melanoma
UACC-62 melanoma = system: UACC-62 melanoma

Cc1nn(-c2ccccc2)c2c1C1C(=C(c3ccc(Cl)cc3)N2)C(=O)Nc2ccccc21 (centres undefined)
GI50 (MDA-MB-468 breast): 3.34 µM
TGI (MDA-MB-468 breast): 19.5 µM

NS(=O)(=O)c1ccc(Nc2nc(Nc3ccccc3)nc(-n3nc(-c4ccccc4)cc3-c3ccccc3)n2)cc1
GI50 (MDA-MB-468 breast): 2.31 µM
TGI (MDA-MB-468 breast): 6.95 µM

O=C1Nc2ccc(Cl)cc2/C1=C/c1cccc(OCc2ccccn2)c1
GI50 (786-0 renal): 16.4 µM
TGI (786-0 renal): 31.1 µM
GI50 (A498 renal): 18.2 µM
TGI (A498 renal): 32.7 µM
GI50 (A549 NSCLC): 17.8 µM
TGI (A549 NSCLC): 38.2 µM
GI50 (ACHN renal): 15 µM
TGI (ACHN renal): 30 µM
GI50 (BT-549 breast): 14.1 µM
TGI (BT-549 breast): 27.7 µM
GI50 (CAKI-1 renal): 15.3 µM
TGI (CAKI-1 renal): 32 µM
GI50 (CCRF-CEM leukemia): 30.6 µM
TGI (CCRF-CEM leukemia): > 100 µM
GI50 (COLO 205 colon): 17.5 µM
TGI (COLO 205 colon): 33 µM
GI50 (DU-145 prostate): 17.8 µM
TGI (DU-145 prostate): 31.8 µM
GI50 (EKVX NSCLC): 8.43 µM
TGI (EKVX NSCLC): 21.1 µM
GI50 (HCC-2998 colon): 17.8 µM
TGI (HCC-2998 colon): 31.9 µM
GI50 (HCT-116 colon): 13 µM
TGI (HCT-116 colon): 27.2 µM
GI50 (HCT-15 colon): 13.7 µM
TGI (HCT-15 colon): 30.3 µM
GI50 (HL-60(TB) leukemia): 19.2 µM
TGI (HL-60(TB) leukemia): 52.5 µM
GI50 (HOP-62 NSCLC): 15.8 µM
TGI (HOP-62 NSCLC): 31.3 µM
GI50 (HOP-92 NSCLC): 14.7 µM
TGI (HOP-92 NSCLC): 46.2 µM
GI50 (HS 578T breast): 17.7 µM
TGI (HS 578T breast): 45.7 µM
GI50 (HT29 colon): 17.4 µM
TGI (HT29 colon): 32.8 µM
GI50 (IGROV1 ovarian): 15.7 µM
TGI (IGROV1 ovarian): 31.2 µM
GI50 (K-562 leukemia): 19 µM
TGI (K-562 leukemia): > 100 µM
GI50 (KM12 colon): 18.1 µM
TGI (KM12 colon): 33.8 µM
GI50 (LOX IMVI melanoma): 13.3 µM
TGI (LOX IMVI melanoma): 28.2 µM
GI50 (M14 melanoma): 16.3 µM
TGI (M14 melanoma): 31.2 µM
GI50 (MALME-3M melanoma): 15.4 µM
TGI (MALME-3M melanoma): 29 µM
GI50 (MCF7 breast): 7.15 µM
TGI (MCF7 breast): 20.7 µM
GI50 (MDA-MB-435): 18.4 µM
TGI (MDA-MB-435): 36 µM
GI50 (MDA-MB-468 breast): 11.9 µM
TGI (MDA-MB-468 breast): 25.5 µM
GI50 (MOLT-4 leukemia): 12.4 µM
TGI (MOLT-4 leukemia): 36.8 µM
GI50 (NCI-H226 lung): 16.3 µM
TGI (NCI-H226 lung): 38.5 µM
GI50 (NCI-H23 lung): 14.5 µM
TGI (NCI-H23 lung): 28.1 µM
GI50 (NCI-H460 lung): 18 µM
TGI (NCI-H460 lung): 34.5 µM
GI50 (NCI-H522 lung): 14.6 µM
TGI (NCI-H522 lung): 29.9 µM
GI50 (NCI/ADR-RES ovarian): 14.2 µM
TGI (NCI/ADR-RES ovarian): 34 µM
GI50 (OVCAR-3 ovarian): 16.1 µM
TGI (OVCAR-3 ovarian): 30.1 µM
GI50 (OVCAR-4 ovarian): 18.3 µM
TGI (OVCAR-4 ovarian): 54.1 µM
GI50 (OVCAR-5 ovarian): 15.9 µM
TGI (OVCAR-5 ovarian): 30.4 µM
GI50 (OVCAR-8 ovarian): 15.4 µM
TGI (OVCAR-8 ovarian): 30.3 µM
GI50 (PC-3 prostate): 19.4 µM
TGI (PC-3 prostate): 64.4 µM
GI50 (RPMI-8226 leukemia): 20 µM
TGI (RPMI-8226 leukemia): > 100 µM
GI50 (RXF 393 renal): 11.9 µM
TGI (RXF 393 renal): 24.5 µM
GI50 (SF-268 CNS): 17.6 µM
TGI (SF-268 CNS): 38.9 µM
GI50 (SF-295 CNS): 15.5 µM
TGI (SF-295 CNS): 29.1 µM
GI50 (SF-539 CNS): 16 µM
TGI (SF-539 CNS): 29.5 µM
GI50 (SK-MEL-28 melanoma): 16.8 µM
TGI (SK-MEL-28 melanoma): 30.5 µM
GI50 (SK-MEL-5 melanoma): 17 µM
TGI (SK-MEL-5 melanoma): 30.7 µM
GI50 (SK-OV-3 ovarian): 20.2 µM
TGI (SK-OV-3 ovarian): 47 µM
GI50 (SN12C renal): 15.3 µM
TGI (SN12C renal): 28.9 µM
GI50 (SNB-19 CNS): 15.7 µM
TGI (SNB-19 CNS): 29.3 µM
GI50 (SR leukemia): 13 µM
TGI (SR leukemia): 41.9 µM
GI50 (SW-620 colon): 17.5 µM
TGI (SW-620 colon): 34.3 µM
GI50 (T-47D breast): 13.4 µM
TGI (T-47D breast): 30.6 µM
GI50 (TK-10 renal): 18.7 µM
TGI (TK-10 renal): 33.5 µM
GI50 (U251 CNS): 14.6 µM
TGI (U251 CNS): 28.9 µM
GI50 (UACC-257 melanoma): 15.2 µM
TGI (UACC-257 melanoma): 28.7 µM
GI50 (UACC-62 melanoma): 11.9 µM
TGI (UACC-62 melanoma): 24.4 µM
